Source: patent US8637512B2, “Formulations and method of treatment” (Glaxo Group Limited, priority 2002, dated 2014)

What was measured:
[1] = Regional absorption study in the gastrointestinal tract; assay type: in vivo
Text: Until recently, it was not known where, in the gastrointestinal tract, lamotrigine is absorbed. In carrying out a regional absorption study it has recently been discovered that the extent of absorption of lamotrigine is consistent when the drug is delivered to any point in the gastrointestinal tract between the stomach and the ascending colon. The extent of absorption is also equivalent whether the drug is delivered as a solid or as a solution.

[2] = stomach versus lower regions of the gastrointestinal tract; cited from earlier work
[3] = cited from earlier work

- extent of absorption, solid versus solution ([1]; drug delivered as a solid or as a solution): equivalent
- extent of absorption by site of delivery ([1]; drug delivered to any point in the gastrointestinal tract between the stomach and the ascending colon): consistent
SMILES: Nc1nnc(-c2cccc(Cl)c2Cl)c(N)n1 [Lamotrigine, 3,5-diamino-6-(2,3-dichlorophenyl)-1,2,4-triazine]
- solubility in the stomach compared to lower regions of the gastrointestinal tract [2]: higher
- absorption after oral administration [3]: rapidly and completely absorbed
- absolute bioavailability ([3]; oral administration): about 98%
- effect of food on absolute bioavailability ([3]; oral administration): not affected by food
- first pass metabolism ([3]; oral administration): negligible
